In patent US20110060029A1, “METHOD OF TREATING CANCER BY MODULATING EPAC” (priority 2009, published 2011):
“Also recorded” adds a separate entry of the source.

What was measured:
[1] = tested on: SK-Mel-2; test: Migration assay (Boyden chambers) in SK-Mel-2; type: cell-based, human; conditions: for cell migration: 50 μM agonist
Procedure: (§1) Cell Culture—SK-Mel-2 and SK-Mel-24 (ATCC) cell lines were cultured in Eagle's Minimum Essential Medium supplemented with 10% fetal bovine serum at 37° C./5% CO2. HEMA-LP human melanocytes (Cascade Biologics) were maintained in Medium 254 with Human Melanocyte Growth Supplement (Cascade Biologics).
(§2) Adenoviral Overexpression—Recombinant adenoviruses containing human LacZ, Epac1 or Epac2 were constructed (Adeno-X Expression System, Clontech). Human Epac1 and Epac2 cDNA were kindly provided by Dr. J. L Bos (University Medical Center, Utrecht, Netherlands). Adenovirus of PKA alpha subunit was purchased from Vector Biolabs. The corresponding encoding sequence was cloned in topShuttle2 (Clontech) to obtain a mammalian expression cassette, which was then excised and ligated into BD Adeno-X Viral DNA. The recombinant vector was introduced into human embryonic kidney cells (HEK293) to recover infectious adenovirus. Viruses were propagated in HEK293 cells, and purified by BD Adeno-X Virus Purification Kits. Viral titer was determined by Adeno-X Rapid Titer Kit (Clontech). As a control study, adenovirus vector harboring LacZ was used at the same MOI. Cells were infected with adenovirus for 24 hand subjected to each experiment. In some experiments (For HS production and NDST-1 expression, FIGS. 5B, 5C, 5D, 5E, 5F and 5G), cells were further incubated for 48 h in medium without adenovirus followed by each experiment.
(§3) Migration assay—Migration assay was performed using methods previously known in the art using the Boyden chambers (pore size 8 μm, BD Biosciences). The upper chamber's polycarbonate insert film parts were coated by 75 μl fibronectin (50 μg/ml in PBS, Biosciences). Cultured cells were detached and the number of the cells was adjusted to 1×10^3 cells/μl of media. One-hundred micro liter of the cell suspension was applied to the center of the upper chamber and then attached to the lower chamber. Thereafter, the cells were incubated in CO2 incubator at 37° C. for 3 h unless specified. After fixation with 10% formalin neutral solution, cells were stained with Diff-Quick kit (Dade Behring). After mechanical removing of the cells on the upper surface of the membrane with a cotton swab, cells that migrated onto the lower surface of the membrane were counted. Pictures were taken with a microscope followed by counting migrated cells with Image J software in randomly chosen 10 fields.
Transfection of siRNA—Epac1 siRNA (Ambion), syndecan-2 siRNA (Ambion) and NDST-1 siRNA (QIAGEN) were transfected into subconfluent SK-Mel-2 cells using Lipofectamine 2000 (Invitrogen). For Epac1, a pool of double-stranded siRNAs containing equal parts of the following antisense sequence was used: 5′-AUCACUGUAUACCGGUUCC-3′ (SEQ ID NO: 1). For syndecan-2, a pool of double-stranded siRNAs containing equal parts of the following antisense sequence was used: 5′-CUCUGGACUCUCUACAUCC-3′ (SEQ ID NO: 2). For NDST-1, a pool of double-stranded siRNAs containing equal parts of the following antisense sequence was used: 5′-UUUAUUAGCAGUUAGUUCG-3′ (SEQ ID NO: 3). The corresponding non-targeting siRNA Silencer negative Control #2 siRNA (AM4613, Ambion) was used as a negative control. Twenty-four hours later, the medium containing siRNA was changed to fresh medium and incubated for 72 h. When siRNA transfection was combined with adenoviral infection, siRNA transfection followed the adenoviral infection.

[2] = tested on: SK-Mel-24; test: Migration assay (Boyden chambers) in SK-Mel-24; type: cell-based, human; conditions: FIG. 1A; for cell migration: 50 μM agonist
Procedure: as §1, §2
as §3, with “Thereafter, the cells were incubated in CO2 incubator at 37° C. for 3 h unless specified. After fixation with 10% formalin neutral solution, cells were stained with Diff-Quick kit (Dade Behring).” left out, “Pictures were taken with a microscope followed by counting migrated cells with Image J software in randomly chosen 10 fields.” left out

[3] = tested on: HEMA-LP human melanocytes; test: Migration assay (Boyden chambers) in HEMA-LP melanocytes; type: cell-based; conditions: HEMA-LP melanocyte; 50 μM agonist; FIG. 1A
Procedure: as §1
as §2, with “As a control study, adenovirus vector harboring LacZ was used at the same MOI. Cells were infected with adenovirus for 24 hand subjected to each experiment. In some experiments (For HS production and NDST-1 expression, FIGS. 5B, 5C, 5D, 5E, 5F and 5G), cells were further incubated for 48 h in medium without adenovirus followed by each experiment.” left out
Migration assay—Migration assay was performed using methods previously known in the art using the Boyden chambers (pore size 8 μm, BD Biosciences). […] After mechanical removing of the cells on the upper surface of the membrane with a cotton swab, cells that migrated onto the lower surface of the membrane were counted. […]

[4] = tested on: Cloudman S91 melanoma cell line; test: Migration assay in Cloudman S91 melanoma cells; type: cell-based, mouse; conditions: 50 μM 8-pMeOPT, FIG. 6B
Procedure: as §3
Lung colonization assay—To examine the metastatic potential of melanoma cells, lung colonization assay was performed using methods known in the art. […] Two weeks after the injection, the number of metastatic colonies on the surface of the lungs were counted under a dissection microscope. […]

[5] = tested on: syndecan-2 colocalization with lipid rafts; test: Immunocytochemical staining of syndecan-2 and lipid rafts in SK-Mel-2; type: cell-based, human; conditions: for colocalization of syndecan-2 with lipid rafts: SK-Mel-2, 50 μM 8-pMeOPT for 15 min; for Epac1-induced syndecan-2 colocalization with lipid rafts: SK-Mel-2 overexpressing Epac1, NCD 10 μM for 3 h, FIG. 3D
Procedure: (§4) Immunocytochemistry—Immunocytochemistry was performed using methods previously known in the art. SK-Mel-2 on glass coverslips were fixed, washed and permeabilized with 0.02% Triton-X followed by incubation with primary and secondary antibodies for 30 min at room temperature. Alexa Fluor 488- and 594-conjugated goat anti-rabbit or anti-mouse antibodies (Molecular Probes) were used. The pictures were taken with a digital camera operated on a Nikon Eclipse TE200 or a confocal microscope (Zeiss Axiovert 100M). For mounting media, Prolong-Gold antifade with DAPI (Molecular Probes) was used.

[6] = tested on: syndecan-2 in lipid rafts-rich fraction; test: Immunoblot for syndecan-2 in lipid rafts-rich fraction (sucrose density gradient) of SK-Mel-2; type: cell-based, human; conditions: SK-Mel-2 overexpressing Epac1; 10 μM NCD for 3 h; FIG. 3E
Procedure: Western Blotting—Western blot analysis was performed using methods previously known in the art. Cells were lysed and sonicated in lysis buffer containing 25 mM Tris-HCl (pH7.5), 150 mM NaCl, 5 mM MgCl2, 1% NP-40, 1 mM DTT, 5% glycerol, phosphatase inhibitor (Sigma), protease inhibitor cocktail (Sigma) and 1 mM NaF. Equal amounts of protein (20 μg) were subjected to SDS-PAGE. After protein separation by electrophoresis, samples were transferred to Millipore Immobilon-P membrane and immunoblotting with antibodies was performed. Signal intensities of the bands were quantified with Image J software (NIH). Sucrose density gradient centrifugation—Lipid rafts-enriched membrane fractions were prepared using methods previously known in the art. Briefly, SK-Mel-2 cells were homogenated in 2 ml of 500 mM sodium carbonate (pH 11.0) with protease inhibitors (1 μg/ml leupeptin, 0.1 mM PMSF and 50 U/ml egg white trypsin inhibitor) and lysed by sonication. The lysate was then adjusted to 45% sucrose by mixing with 2 ml of 90% sucrose prepared in MBS buffer (25 mM 2-Morpholinoethanesulfonic acid (MES), pH 6.5, […]) and placed at the bottom of 5% and 35% discontinuous sucrose gradient (in MBS buffer containing 100 mM sodium carbonate) for an overnight ultra-centrifugation (260,000 g). Fractions were removed sequentially from the top and designated as fractions 1 through 13. […]

[7] = tested on: tubulin; test: Immunocytochemical staining with tubulin in SK-Mel-2; type: cell-based, human; conditions: SK-Mel-2 overexpressing Epac1; NCD 10 μM for 3 h; FIG. 3C
Procedure: as §4

`CCCC(=O)Nc1ncnc2c1ncn2[C@@H]1O[C@@H]2COP(=O)(O)O[C@H]2[C@H]1O` [6-MB-cAMP, N6-Monobutyryladenosine-3′,5′-cyclic monophosphate] was tested, and the cell migration ([1]; SK-Mel-2, FIG. 1A) was “did not increase cell migration; also recorded: neither 6-MB-cAMP nor PKA overexpression, increased melanoma cell migration”, the cell migration [2] was “did not increase cell migration; also recorded: neither 6-MB-cAMP nor PKA overexpression, increased melanoma cell migration” and the cell migration [3] was “did not increase cell migration”.
With `COc1ccc(Sc2nc3c(N)ncnc3n2[C@@H]2O[C@@H]3COP(=O)(O)O[C@H]3[C@H]2OC)cc1` [8-pMeOPT, 8-pMeOPT-2-O-Me-cAMP] the “cell migration, combination with overexpression of Epacs over Epac overexpression alone” value ([1]; SK-Mel-2, 50 μM 8-pMeOPT, FIG. 1A) was “further increased cell migration”, the cell migration ([1]; SK-Mel-2, FIG. 1A) was “increased melanoma cell migration” and the “cell migration, combination with overexpression of Epacs over Epac overexpression alone” value ([2]; 50 μM 8-pMeOPT) was “such increase was not observed”. The cell migration [2] was “increased melanoma cell migration”, the cell migration [3] was “not in a melanocyte cell line” and the migration [4] was “increased migration”. For the same compound, the “colocalization of syndecan-2 with lipid rafts” value ([5]; FIG. 2A) was “increased colocalization of syndecan-2 with lipid rafts” and the “colocalization of syndecan-2 with lipid rafts” value ([5]; FIG. 2A, listed as Epac agonist) was “increased co-localization of syndecan-2 with lipid rafts”.
In the case of `COC(=O)Nc1nc2ccc(C(=O)c3cccs3)cc2[nH]1` [NCD, Nocodazole], the Epac1-induced migration ([1]; SK-Mel-2 overexpressing Epac1, NCD 10 μM, FIG. 3F) is reported as “inhibited Epac-induced migration; also recorded: inhibited Epac1-induced migration”, the “Epac1-induced syndecan-2 colocalization with lipid rafts” value [5] is reported as “decreased Epac1-induced syndecan-2 colocalization with lipid rafts” and the “Epac1-induced syndecan-2 colocalization with lipid rafts” value ([5]; listed as Nocodazole) is reported as “decreased the colocalization of syndecan-2 with lipid rafts”. The “syndecan-2 expression in lipid raft-rich fraction” value [6] was “decreased expression of sydecan-2 in the lipid rafts-rich fraction; also recorded: decreased syndecan-2 expression in lipid raft-rich fraction” and the “Epac1-induced fine tubulin network formation” value [7] was “network formation was inhibited”.
`[Na+].[O-][Cl+2]([O-])[O-]` [sodium chlorate] was tested, and the Epac-induced migration ([1]; sodium chlorate, data not shown) was “decreased Epac-induced migration”.
cyclodextrin [CXD] was tested, and the Epac1 overexpression-induced migration ([1]; SK-Mel-2 overexpressing Epac1, 10 μg/ml CXD, FIG. 2C) was “inhibited; also recorded: decreased Epac1 overexpression-induced migration”, the basal migration ([1]; SK-Mel-2 overexpressing LacZ, 10 μg/ml CXD, assay 8 h, FIG. 2C) was “inhibited” and the “Epac1-overexpression-induced colocalization of syndecan-2 with lipid rafts” value ([5]; SK-Mel-2 with Epac1 adenovirus, 10 μg/ml CXD, FIG. 2A) was “decreased Epac-induced syndecan-2 colocalization with lipid-rafts; also recorded: decreased Epac1-overexpression-induced colocalization of syndecan-2 with lipid rafts”.
